US9447083B2, “N-acylhydrazone derivatives for selective T cell inhibitor and anti-lymphoid malignancy drug” (CHONG KUN DANG PHARMACEUTICAL CORP., priority 2012, dated 2016)
Where “and” joins values, the source holds several entries; their conditions need not be identical. Equal values may be shown once.

Columns and labels:
[1] = tested on: acute graft-versus-host disease; assay: Acute graft-versus-host disease, mouse model of allogeneic bone marrow transplantation; assay type: in vivo; conditions: 25 mg/kg intraperitoneally daily for 10 days
Source text: Lymph nodes, spleens, both femurs and tibias were aseptically collected from normal C57BL/6 mice (8-12 week old, female, 20-23 g), and T cells were isolated from the lymph nodes and spleens in the same manner as described in Experimental Example 2 and were re-suspended in PBS at a concentration of 8×10^7 cells/mL. The femurs and tibias were cut at the ends, and the bone marrow was flushed from femurs and tibias with RPMI medium using a syringe (21G for femur and 26G for tibia) to extract the marrow, which was then suspended and passed through a cell strainer to make a single cell suspension. The bone marrow cell suspension was centrifuged at 1200 rpm for 5 minutes, and the supernatant was removed, then the cells were added to 1 mL of ACK lysis buffer and vortexed for 1 minute, followed by washing with RPMI medium. […] The incubated cell suspension was added with 5 mL of MACS buffer, centrifuged for 5 minutes, washed, and then re-suspended in 2 mL of MACS buffer. The suspended cells were placed in the autoMACS Pro Separator, and T cells bound to the CD90.2 microbeads were removed. The separated T cell-depleted bone marrow cells (TCD-BM) were washed with PBS and re-suspended in PBS at a concentration of 1×10^8 cells/mL. Normal BDF1 mice (10-12 week old, female, 20-23 g) were irradiated with 850 rad of γ radiation using an irradiator, and then 100 μL of a graft obtained by mixing the C57BL/6 mouse T cells and the TCD-BM at a ratio of 1:1 was injected into the tail vein of the BDF1 mice. In a group treated with compound 229 of the present invention, compound 229 was completely dissolved in a Cremophor EL-ethanol mixture (1:1, v/v) in an amount corresponding to 15% (v/v) of the administration volume, after which the compound solution was diluted in PBS, and the dilution was administered intraperitoneally to each mouse at a dose of 25 mg/kg daily for 10 days from the day of the graft injection. Meanwhile, Tacrolimus that is a currently clinically used immunosuppressive agent was administered to mice of another group in the same amount as compound 229 in order to compare the inhibitory effect on acute graft-versus-host disease, and mice of a vehicle control group were administered with 200 μL of a Cremophor EL-ethanol-PBS (7.5:7.5:85, v/v/v) in the same manner as the treated groups. Then, the survival of mice was monitored daily, and the severity of GVHD was assessed twice a week with clinical GVHD scoring system for each a decrease in weight loss, hunched posture, decreased activity, fur ruffling and skin lesions. Each parameters were scored on a 3-point (0 to 2) scale.

KMS11 = assay: Apoptosis of lymphoid malignancy cell lines: KMS11; assay type: cell-based; conditions: Homo sapiens, KMS-11; KMS11, Multiple myeloma, 24 hours; read-out: Administration Dose (mean ± SD, μmol/L) Lethal Dose 50 (Apoptosis)
Procedure: Each of the acute T cell leukemia cell lines Jurkat, Molt4 and CCRF-CEM, the acute B cell leukemia cell line Raji and the […] cell lines KMS11, KMS12BM, KMS26, KMS28BM, and IM9 was re-suspended in 10% FBS-containing RPMI medium at a concentration of 1.5×10^5 cells/mL, and 200 μL of each of the cell suspensions was cultured in a flat bottom 96-well plate (Costar). The acute NK cell lymphoma cell line NK-92MI was re-suspended in α-MEM medium (supplemented with 20% FBS, 1×MEM vitamine solution, 50 μM 2-mercaptoethanol and 1× penicillin/streptomycin) at a concentration of 1.5×10^5 cells/mL, and 200 μL of the cell suspension was cultured in a flat bottom 96-well plate. The cells in each well was treated with 10 μL of each of 0.1, 0.25, 0.5, 0.75 and 1 μM of the compound diluted with RPMI medium, followed by that the cells were incubated in a 5% CO2 incubator at 37° C. for 24 hours. […]
The cells were collected, and then the apoptosis thereof was analyzed by a flow cytometer after staining with Annexin V-7-AAD. The incubated cells were collected, placed in a 5-mL FACS tube (BD Falcon) and washed with 1 mL of fluorescence activated cell sorting (FACS) buffer (1%. FBS and 0.1% sodium azaide in PBS). […] The stained cells were suspended in 0.3 mL of FACS buffer, and then analyzed by a flow cytometer. […]

[2] = tested on: Experimental Autoimmune Encephalomyelitis (EAE); assay: Experimental Autoimmune Encephalomyelitis (EAE) model of multiple sclerosis; assay type: in vivo, mouse
Procedure: At the first day of induction, myelin oligodendrocyte glycoprotein35-55 (MOG35-55, Peptron) (200 ug), mycobacterium tuberculosis (Difco, Cat No. 231141) (500 μg) and complete Freund's adjuvant (Sigma Aldrich, Cat No. F5506) were mixed with each other and immersed for 5 minutes. 0.1 mL of the immersed peptide was injected subcutaneously into both the flanks of each of C57BL/6 mice (9 week old, female, 18±2 g), followed by that […] pertussis toxin (Sigma Aldrich, Cat No. P2980) (200 ng) was injected by intravenously. At 2 days, the same amount of pertussis toxin was administered intravenously. Whether the immersion leaked from the injected portion of the mice was checked, and whether EAE was induced was also examined by visual observation from 7 days.
Compound 229 and Fingolimod that is currently clinically used for the treatment of multiple sclerosis were completely dissolved in a Cremophor EL-ethanol mixture (1:1, v/v) in an amount corresponding to 7.5% (v/v) of the administration volume, and the compound solution was diluted in PBS. The two groups of the mice were administered orally with 200 μL of the diluted solution of compound 229 at each doses of 25 and 50 mg/kg separately, and the third group of the mice was administered orally with 200 μL of the diluted solution of fingolimode at a dose of 1 mg/kg on a daily basis from 17 days to 37 days (for total 21 times) after starting of the experiment. In a vehicle control group, 200 μL of a Cremophor EL-ethanol-PBS mixture (3.75:3.75:92.5, v/v/v) was administered to each mouse in the same manner as the treated group. The index of EAE was recorded daily based on visual observation using a severity index system (6-point (0 to 5) scale) from 7 days of the experiment. The symptoms of multiple sclerosis were evaluated based on the following criteria:
2: limp tail and hind limb weakness;
4: hind limb paralysis and forelimb weakness; and […]

For `Cc1cc(C)c(OCC(=O)N/N=C/c2ccc3cc[nH]c3c2)c(C2CCOC2)c1` (centres unmarked) [Compound 229, (E)-N′-((1H-indol-6-yl)methylene)-2-(2,4-dimethyl-6-(tetrahydrofuran-3-yl)phenoxy)acetohydrazide], the “severity of GVHD (clinical scoring system)” value [1] was “slight symptoms of GVHD”, the survival rate ([1]; final (day 70), vehicle 10%) was 80% and the “mouse death, days after cell transplantation” value ([1]; vehicle from 29 days) was 35 days and 46 days. For the same compound, the EC50 (KMS11) was 0.35 ± 0.09 µmol/L, the “severity index (EAE, 0 to 5 scale)” value ([2]; 25 mg/kg orally daily from 17 to 37 days, at 17 days (start of administration)) was 3±1 and the “severity index (EAE, 0 to 5 scale)” value ([2]; 25 mg/kg orally daily from 17 to 37 days, at 39 days, vehicle 2.5±0.75) was 1.25±0.75. The “severity index (EAE, 0 to 5 scale)” value ([2]; 25 mg/kg orally daily from 17 to 37 days, at 55 days) was 1.17±0.75, the “severity index (EAE, 0 to 5 scale)” value ([2]; 25 mg/kg orally daily from 17 to 37 days, at 101 days, vehicle 2.33±0.25) was 1.83±0.5 and the “severity index (EAE, 0 to 5 scale)” value ([2]; 50 mg/kg orally daily from 17 to 37 days, at 17 days (start of administration)) was 3±0.75. The “severity index (EAE, 0 to 5 scale)” value ([2]; 50 mg/kg orally daily from 17 to 37 days, at 39 days, vehicle 2.5±0.75) was 0.9±0.25 and the “severity index (EAE, 0 to 5 scale)” value ([2]; 50 mg/kg orally daily from 17 to 37 days, at 101 days, vehicle 2.33±0.25) was 0.63±0.25.
